The source of these data is patent publication US20230382916A1, “HETEROARYL HETEROCYCLIC COMPOUNDS AND USES THEREOF” (HUTCHISON MEDIPHARMA LIMITED, priority 2020, published 2023).

Data set [1] concerns anti-IgD antibody-induced B cell activation in mice whole blood. The experiment in a line: In vivo efficacy of the inhibitory effect on BTK target: anti-IgD antibody-induced B cell activation in mice whole blood after oral dosing. More on the design: species or system mouse. As to conditions: 20 mg/kg oral single dose, 16 h. The protocol:
Objects: B cells in mice whole blood were induced and activated by the anti-IgD antibody, and the inhibitory effect of the compound of the present invention on B cell activation in vivo was studied, so as to determine the inhibitory effect of the compound of the present invention on the BTK target in vivo.
Methods: C57BL/6 mice (female, 18-20 g, purchased from Shanghai Lingchang Biotechnology Co., Ltd.) were grouped according to Table 1.
The animals of each group were administered, then were placed in CO2 for anesthesia at designated time points, blood samples were taken from […] via retro-orbital bleeding, and heparin was used for anticoagulation; 90 μL of whole blood was taken from mice of each group, and added to a 96 well culture plate, and anti-mouse IgD antibody (BIO-RAD, Cat #MCA4693) was added to each well to a final concentration of […] (respectively for each drug-treated group and anti-IgD antibody-inducted vehicle group); in addition, 90 μL of whole blood of mice in the vehicle group was taken and added to the 96-well culture plate, and PBS (phosphate buffer, GIBCO, Cat #C20012500BT) was added to each well to a final concentration of 0.01 μg/L (namely, the vehicle control group); Each group was mixed well and incubated in a 37° C./5% CO2 incubator for 4 hours. In addition, the blood of mice in the drug-treated group was centrifuged to separate plasma for blood concentration analysis.
B cell activation ratio=percentage of CD69^+CD19^+ double positive B cells/percentage of CD19^+ single positive B cells
Inhibition ratio=(percentage of B cell activation ratio in anti-IgD antibody-induced vehicle group−percentage of B cell activation ratio in drug-treated group)/(percentage of B cell activation ratio in anti-IgD antibody−induced vehicle group-percentage of B cell activation ratio in vehicle control group)×100%
All data are represented by mean±standard error. For the comparison between each drug-treated group and the anti-IgD antibody-induced vehicle group, p value was calculated by Graphpad Prism using one-way ANOVA analysis of variance and Dunnett's test, and for the comparison between each drug-treated group, p value was calculated by using unpaired t test.

For a further data set, the target named is BTK recombinant protein (Homo sapiens (Human), UniProt Q06187). As to the kind of experiment: Determination of biochemical BTK (Z'-LYTE kinase assay). As to conditions: 32 μM ATP. From the text: BTK recombinant protein: Invitrogen, Cat #PV3363;
BTK recombinant protein, sequence (Q06187 whole entry): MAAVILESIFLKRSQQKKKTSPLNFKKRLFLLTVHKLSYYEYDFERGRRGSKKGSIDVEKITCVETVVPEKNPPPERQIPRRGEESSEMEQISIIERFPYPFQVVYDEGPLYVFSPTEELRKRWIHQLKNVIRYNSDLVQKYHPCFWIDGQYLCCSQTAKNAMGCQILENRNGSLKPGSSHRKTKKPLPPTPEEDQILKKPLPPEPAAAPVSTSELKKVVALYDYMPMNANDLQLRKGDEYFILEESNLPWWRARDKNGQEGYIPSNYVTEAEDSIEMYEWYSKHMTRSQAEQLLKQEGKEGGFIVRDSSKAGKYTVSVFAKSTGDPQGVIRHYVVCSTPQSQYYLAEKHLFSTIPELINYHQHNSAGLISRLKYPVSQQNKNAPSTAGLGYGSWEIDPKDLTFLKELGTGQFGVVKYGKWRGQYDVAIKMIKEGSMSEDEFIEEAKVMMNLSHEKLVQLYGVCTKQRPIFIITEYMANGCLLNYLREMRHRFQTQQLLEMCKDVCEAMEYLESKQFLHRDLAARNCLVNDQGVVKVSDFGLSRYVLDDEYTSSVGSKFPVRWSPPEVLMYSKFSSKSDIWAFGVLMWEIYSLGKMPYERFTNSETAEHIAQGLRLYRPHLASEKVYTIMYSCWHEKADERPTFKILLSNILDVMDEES
Z′-LYTE® kinase test kit-tyrosine 1 peptide: Invitrogen, Cat #PV3190;
Z′-LYTE® biochemical assay employs a fluorescence resonance energy transfer (FRET)-based, coupled-enzyme format and is based on the differential sensitivity of phosphorylated and non-phosphorylated peptides to proteolytic cleavage. Both ends of the short peptide substrate are labeled with two fluorescent groups to form a FRET paired combination. In the primary reaction (the Kinase Reaction), the kinase transfers the γ-phosphate of ATP to a single […] residue on the short peptide substrate. In the secondary reaction (the development reaction), the non-phosphorylated short peptides were recognized and cleaved by a site-specific protease (the development reagent). Phosphorylated short peptides can resist such cleavage. Cleavage of short peptides can disrupt the donor (such as coumarin) and receptor fluorophores (fluorescein) on the short peptides, while the phosphorylated short peptides can maintain FRET. The calculation method of the ratio is as follows, and the ratio of the respective emission signals generated by the donor fluorophores emitted (after excitation at 400 nm) to the receptors is calculated. Emission signal ratio=emitted light by coumarin (445 nm)/emitted light by fluorescein (520 nm). If the FRET short peptide is phosphorylated (such as no kinase inhibitor), the emitted light ratio will remain in a lower level. If the FRET short peptide is non-phosphorylated (such as kinase inhibitor), the emitted light ratio will be in a higher level. In this way, the inhibitory effects of different compound inhibitors on BTK kinase activity would be distinguished.
The experiment was carried out according to the instructions of the Z′-LYTE® kinase test kit-tyrosine 1 peptide. Reagent preparation: 1.33× kinase buffer: 5× kinase buffer was diluted with water to 1.33× kinase buffer; an enzyme solution: the kinase was dissolved in 1.33× kinase buffer with the final working concentration being 3.32 nM; a short peptide solution: a short peptide stock solution (1 mM dissolved in DMSO) was dissolved in 1.33× kinase buffer with the final working concentration being 2 μM; Z′-LYTE Tyr01 phosphorylated short peptide solution, 0.6 μl of stock solution (1 mM dissolved in DMSO) was dissolved in 149.4 μl of 1.33× kinase buffer; an ATP solution: an ATP stock solution (10 mM aqueous solution) was dissolved in 1.33× kinase buffer with the final working concentration being 32 μM; a color-developing solution: color-developing solution B was dissolved in color-developing buffer with the final working concentration being 1× color-developing solution; 4× compound preparation: the compound was diluted in 3-fold gradient concentration to finally obtain 4% DMSO aqueous solution containing different concentrations of the compound, with the final working concentration being 3000, 1000, 333.33, 111.11, 37.04, 12.35, 4.12, 1.37 nM, 8 concentration points in total.
Specific steps of the experiment: In the experiment, there were three control groups, each with 8 replicate wells, which were C1 100% inhibition group (no ATP), C2 0% inhibition group (with ATP), and C3 100% phosphorylation group, respectively. 2.5 μl of serially diluted compound was added to each well of a 384-well plate, with double replicate wells, and 4% DMSO solution was added to wells C1, C2, and C3. After that, except for wells C3, 2.5 μl of BTK enzyme solution was added to each remaining well, which was left to stand at 4° C. for 30 minutes. After that, except for wells C3, 2.5 μl of short peptide solution was added to each well, and 5 μl of phosphorylated short peptide solution was added to each of wells C3. 2.5 μl of 1.33× kinase buffer was added to each of wells C1 and C3, and 2.5 μl of ATP solution was added to each of the remaining wells. The wells were centrifuged transiently, and the plate was shaken at 1000 rpm for 30 seconds to perform transient centrifuge. […]

Data set [2] is described as follows: Stability test in liver microsomes (rat). It is filed as in vitro ADME. As to conditions: rat liver microsomes 0.5 mg/mL, 1 μM compound. On the procedure:
(§1) Both male CD-1 mouse pooled liver microsomes and male SD rat pooled liver microsomes were purchased from BioreclamationIVT Corporation, USA.
(§2) The test compound stock solution was diluted with an organic solvent (usually a mixture of acetonitrile, methanol and water with various ratios, depending on the solubility of the compound, if necessary, 1 N hydrochloric acid or 1 N sodium hydroxide would be added to facilitate solubilization) to the 0.1 mM (the final concentration of the compound in the reaction system was 1 μM) and the concentration percentage of the organic solvents in the incubation system no more than 1% (wherein the percentage of DMSO was required to be no more than 0.1%). An appropriate amount of 100 mM NADP, 500 mM G-6-P and 100 Unit/mL G-6-PDH were mixed and diluted with ultrapure water (the final system contains 1 mM NADP, 5 mM G-6-P and 1 Unit/mL G-6-PDH), pre-incubated in a 37° C. water bath for 10 minutes and then placed on ice for use as a NADPH regeneration solution. 20 mg/mL liver microsomes solution and 200 mM phosphate buffer were mixed, and diluted with ultrapure water to give a liver microsomes solution containing 2.5 mg/mL liver microsomes (the final concentration of the reaction system is 0.5 mg/mL) and 50 mM phosphate buffer. The diluted liver microsomes solution was mixed with 0.1 mM compound solution, a mixture of 100 mM EDTA, 300 mM MgCl2 solution, 200 mM phosphate buffer (the final system was 3 mM MgCl2, 1 mM EDTA and 50 mM phosphate buffer) and water in an appropriate volume was added. Finally, the NADPH regeneration solution was added, then the reaction solution was placed in a 37° C. water bath to start the reaction (the reaction time was 30 minutes), and the reaction was stopped by adding the ice-cold acetonitrile reaction stopping solution containing the internal standard. The 0-minute sample was not incubated in a 37° C. water bath, and its difference from the 30-minute sample further lies in that the ice-cold acetonitrile reaction stopping solution containing the internal standard was added first, and then the NADPH regeneration solution was added. The sample added with the reaction stopping internal standard solution was vortexed and mixed well, and then centrifuged at 4400 rpm for 10 minutes. The supernatant was taken and diluted ten times with 50% methanol for LC-MS/MS analysis.
(§3) LC-MS/MS was used to determine the concentration of the compound in the sample. The percentage of the remaining compound after 30 minutes of incubation comparing with that in the 0-minute sample was calculated using the peak area ratio of the compound to the internal standard as an indicator, to evaluate the metabolic stability of the compound.

Data set [3] can be described thus: Stability test in liver microsomes (mouse). It is filed as in vitro ADME. The note with it: mouse liver microsomes 0.5 mg/mL, 1 μM compound. The protocol: as §1, §2, §3
(Liver microsomes are vesicles of endoplasmic reticulum, rich in cytochrome P450 enzymes.)

The structures appear in SMILES notation.

Take `C[C@@H]1CN(C2COC2)C[C@H](C)N1c1ccc(Nc2cc(-c3ccnc(-n4ccn5c6c(cc5c4=O)CC(C)(C)C6)c3CO)cn(C)c2=O)nc1` [Compound 2]: the “Inhibition ratio (%) on B cell activation” value in data set [1] and in data set [1] (listed as compound 2) was 43% throughout. Moreover, the “B cell activation ratio (the population of activated B cells in total B cells)” value in data set [1] (mean ± standard error) amounted to 20.6 ± 5.0. Further, the IC50 on BTK recombinant protein was 7 nM. For the same molecule, the “RLM, percentage of the remaining compound after 30 minutes of incubation” value in data set [2] came to 85.7%. In addition, the “MLM, percentage of the remaining compound after 30 minutes of incubation” value in data set [3] amounted to 92.6%.

What is called IC50 is the concentration at which inhibition is half-maximal.
